BindingDB's records for doi:10.1016/s0960-894x(02)00140-3 (Aventis Pharma, 2002)

Target: Proto-oncogene tyrosine-protein kinase Src (Homo sapiens, UniProt P12931)
Experiment: ChEBML_202783
Description: The compound was evaluated for its binding affinity towards phosphotyrosine binding pocket of Src protein tyrosine kinase SH2 domain

Sequence of Proto-oncogene tyrosine-protein kinase Src (P12931 2-536 limits assumed): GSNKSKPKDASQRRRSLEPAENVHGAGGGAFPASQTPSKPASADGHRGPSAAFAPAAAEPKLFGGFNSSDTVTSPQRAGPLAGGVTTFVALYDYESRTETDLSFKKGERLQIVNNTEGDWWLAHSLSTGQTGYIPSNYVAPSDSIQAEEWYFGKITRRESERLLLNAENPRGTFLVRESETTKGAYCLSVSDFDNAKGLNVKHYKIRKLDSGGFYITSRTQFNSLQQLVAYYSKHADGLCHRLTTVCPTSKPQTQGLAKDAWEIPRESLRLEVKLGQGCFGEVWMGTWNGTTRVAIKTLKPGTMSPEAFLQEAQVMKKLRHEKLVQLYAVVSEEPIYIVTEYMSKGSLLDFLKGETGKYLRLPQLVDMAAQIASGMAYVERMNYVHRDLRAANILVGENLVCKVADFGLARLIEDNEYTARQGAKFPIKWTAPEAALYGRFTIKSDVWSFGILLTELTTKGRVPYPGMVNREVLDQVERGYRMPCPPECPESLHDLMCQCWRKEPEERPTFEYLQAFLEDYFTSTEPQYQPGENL

O=P(O)(O)C(O)c1cccc2ccccc12 (stereo unspecified) [[hydroxy(naphthalen-1-yl)methyl]phosphonic acid]
IC50: > 5 mM
